From patent publication US8916600B2, “Phenyl and benzodioxinyl substituted indazoles derivatives” (Astrazeneca AB, priority 2008, dated 2014)
pIC50: −log10 of the molar value. Like-named read-outs stand apart in the source and are kept apart here.

What was measured:
[1] = tested on: AP-1/TRE-activity in ChaGo-K-1 cells transfected with 5×TRE-LacZ; experiment: Transrepression Reporter Gene Assay (TRE-LacZ transfected ChaGo-K-1 cells, PMA stimulated); format: cell-based, human; conditions: PMA 10 ng/ml, Dexamethasone 10^-6 M set as 100 percent control, read-out: Agonism TRE IC50
Method: Transrepression Reporter Gene Assay
The human bronchogenic carcinoma cell-line, ChaGo-K-1 (ATCC: HTB 168), were transfected with 5×TRE-LacZ (clone 16:15:5 s5), i.e. TRE transfected cells, to measure transrepression activity of the selected compounds. Before use, the cells were grown for one to two weeks in selection medium containing 0.7 mg geneticin (G418)/ml medium. The cells were cultured at 37° C., 5% CO2 and 100% humidity in 96 well microtiter plates in RPMI-medium complemented with 10% fetal calf serum, 1% non-essential amino acids and 1% sodium pyruvate. The cells were passaged once weekly.
The TRE transfected cells were seeded in 96 well plates with 25-30 000 cells/well and grown for 72-96 h, to reach about 80% confluence. To stimulate the upregulation of the AP-1/TRE-activity, the cells were stimulated with 10 ng/ml Phorbol Myristate acetate (PMA) 3-5 h prior to addition of compounds. The PMA was present during the whole experiment. The TRE mediated effects (transrepression) in the transfected ChagGo-K-1 cells was measured as downregulation of β-galactosidase activity. The β-galactosidase activity for the transrepression experiments was measured by a fluorometric assay performed in microtiter plates. Cells were washed once in PBS. 180 μl of a reaction mixture containing 5 parts of Z-buffer and one part 4-methylumbelliferyl-β-D-galactosidase (MUG)-solution was then added (150 μl Z-buffer [18 μl 0.6 M Na2HPO4, 12 μl 0.6 M NaH2PO4, 7.2 μl 0.25 M KCl, 18 μl 0.01 M MgSO4, 1.8 μl 10% Triton X-100, 93 μl H2O]+30 μl 3 mM 4-methylumbelliferyl-[…]). After 60 min incubation at 37° C., 70 μl stop buffer was added to each well and the fluorescence was read in a fluorometer (Spectramax Gemini) with emission filter at 460 nm and excitation filter at 360 nm. The TRE activity was calculated as the relative activity compared to cells not treated with compounds. Inhibition of β-galactosidase by the compounds is expressed as percent inhibition compared to Dexamethasone 10^−6 M set as a 100 percent control within each experiment and DMSO 0.1% set as background control. The effect of Dexamethasone is well documented in this system and was therefore chosen as a positive control for comparison of the potency and efficacy of the compounds.

[2] = biological target: Human Glucocorticoid Receptor (GR) (Homo sapiens (Human), UniProt P04150); experiment: Human Glucocorticoid Receptor (GR) radioligand binding assay (competition with 3H-labeled Dexamethasone); conditions: full length GR, 7 nM 3H-dexamethasone, 2 h at room temperature; read-out: GR Hu Bind Filter Mean Control IC50
Chain of Human Glucocorticoid Receptor (GR) (P04150 whole entry): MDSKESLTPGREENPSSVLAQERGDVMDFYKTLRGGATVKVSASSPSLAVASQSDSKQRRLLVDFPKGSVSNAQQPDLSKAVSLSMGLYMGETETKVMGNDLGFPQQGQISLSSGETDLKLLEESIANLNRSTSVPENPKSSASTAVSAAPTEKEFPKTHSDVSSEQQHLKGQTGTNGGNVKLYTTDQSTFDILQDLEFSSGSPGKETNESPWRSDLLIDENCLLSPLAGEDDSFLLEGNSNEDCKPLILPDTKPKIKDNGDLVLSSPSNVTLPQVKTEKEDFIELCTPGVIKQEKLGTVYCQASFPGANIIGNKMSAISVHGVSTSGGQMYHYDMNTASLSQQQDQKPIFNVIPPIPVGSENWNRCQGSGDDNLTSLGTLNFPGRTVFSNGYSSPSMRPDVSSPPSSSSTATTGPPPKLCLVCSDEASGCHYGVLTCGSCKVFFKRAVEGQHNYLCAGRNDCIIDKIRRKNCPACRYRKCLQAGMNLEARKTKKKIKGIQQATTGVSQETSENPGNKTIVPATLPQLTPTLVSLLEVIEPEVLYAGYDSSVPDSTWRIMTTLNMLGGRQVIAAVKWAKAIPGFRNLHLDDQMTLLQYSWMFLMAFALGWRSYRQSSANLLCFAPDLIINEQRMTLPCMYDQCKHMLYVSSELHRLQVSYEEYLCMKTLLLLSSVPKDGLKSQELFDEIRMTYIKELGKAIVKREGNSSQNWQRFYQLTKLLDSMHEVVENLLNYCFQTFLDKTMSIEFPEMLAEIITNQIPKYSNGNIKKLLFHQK
Method: Human Glucocorticoid Receptor (GR) Assay
The radioligand GR binding assay is based on a competition assay using ^3H-labeled Dexamethasone, Dexamethasone is known to bind in the ligand binding domain of GR and compete for binding with endogenous ligands like e.g. cortisol (Necela, 2003).
In the GR radioligand binding assay, test compounds were serially diluted in semi-log steps (10 concentrations) with a final concentration of 10 μM. Test compounds (1 μL) and controls (1 μL) in 100% DMSO were added to 96 Greiner V-bottom polypropylene plates. 0% control was 6.7% DMSO (final concentration in assay) and 100% control was 6.7 μM Dexamethasone.
The full length GR was diluted to a final concentration of 3.3% (0.495 mg/ml) in assay buffer (20 mM Tris-HCl, 1 mM EDTA, 10% (w/v) Glycerol, 20 mM Sodium molbydate, pH 7.4). 45 μL of GR was added to each well and the plates were incubated for 15 min at room temperature.
^3H-dexamethasone solution was diluted to a concentration of 70 nM in assay buffer (7 nM final assay concentration) and 5 μL was added to each well. The samples were mixed for 5 min using a plate shaker at 700 rpm, before incubation for 2 h at room temperature,
50 μL ice-cold charcoal solution (pH 7.4: 2% Charcoal, 0.2% Dextran T70 in 20 mM Tris-HCl, 1 mM EDTA and 20 mM Sodium molbydate) was'added to each well and the samples were mixed on plate shaker for 5 minutes.
The plate was then centrifuged for 1.5 min at 1500 rpm, the samples (80 μL) were transferred from each well to a filter plate (Millipore, 0.45 μm, MHVBN45) on a vacuum manifold and then collected into new plates (Greiner, 96 well white/transparent, 655095). The filter plate was washed once with 20 μl of water and then 100 μL of scintillation liquid was added to each well and mixed by incubation on plate shaker for 5 min. Radioactivity was measured in a 1450 Microbeta Trilux Reader (Wallac) counting cpm for 2 minutes per well. The data obtained from each replicate experiment were analysed using the software ActivityBase, version 5.4.3 (ID Business Solutions Ltd) and IC50 values were calculated. Ref: Necela, B M, Cidlowski, J A, Trends Pharmacol Sci, 24: 58, 2003

[3] = Homo sapiens, ChaGo-K-1, downregulation of β-galactosidase activity

Row | Compound | pIC50 [1, 3] | pIC50 [2] | pIC50 ([1]; downregulation of β-galactosidase activity)
1 | C[C@H](NC(=O)C(C)(F)F)[C@H](Oc1ccc2c(cnn2-c2cccc(C(=O)N[C@H]3CCS(=O)(=O)C3)c2)c1)c1ccc2c(c1)OCOC2 [Example 4, 3-[5-({(1R,2S)-1-(4H-1,3-benzodioxin-7-yl)-2-[(2,2-difluoropropanoyl)amino]propyl}oxy)-1H-indazol-1-yl]-N-[(3S)-1,1-dioxidotetrahydrothiophen-3-yl]benzamide] | 9.13 | – | –
2 | C[C@H](NC(=O)C(C)(F)F)[C@H](Oc1ccc2c(cnn2-c2cccc(C(=O)NC3CCCC3)c2)c1)c1ccc2c(c1)OCCO2 [Example 7, N-cyclopentyl-3-(5-{[(1R,2S)-2-[(2,2-difluoropropanoyl)amino]-1-(2,3-dihydro-1,4-benzodioxin-6-yl)propyl]oxy}-1H-indazol-1-yl)benzamide] | 9.79 | 8.89 | –
3 | C[C@H](NC(=O)C(C)(F)F)[C@H](Oc1ccc2c(cnn2-c2cccc(C(=O)NC3CCCC3)c2)c1)c1ccc2c(c1)OCOC2 [Example 8, 3-[5-({(1R,2S)-1-(4H-1,3-benzodioxin-7-yl)-2-[(2,2-difluoropropanoyl)amino]propyl}oxy)-1H-indazol-1-yl]-N-cyclopentylbenzamide] | 9.41 | 9.10 | –
4 | C[C@H](NC(=O)C(C)(F)F)[C@H](Oc1ccc2c(cnn2-c2cccc(C(=O)N[C@@H]3CCS(=O)(=O)C3)c2)c1)c1ccc2c(c1)OCOC2 [Example 3, 3-[5-({(1R,2S)-1-(4H-1,3-Benzodioxin-7-yl)-2-[(2,2-difluoropropanoyl)amino]propyl}oxy)-1H-indazol-1-yl]-N-[(3R)-1,1-dioxidotetrahydrothiophen-3-yl]benzamide] | 9.46 | – | –
5 | C[C@H](NC(=O)C(C)(F)F)[C@H](Oc1ccc2c(cnn2-c2cccc(C(=O)N[C@H]3CC[S+]([O-])C3)c2)c1)c1ccc2c(c1)OCOC2 (single isomer, unassigned) [Example 15] | 9.30 | 8.44 | –
6 | C[C@H](NC(=O)C(C)(F)F)[C@H](Oc1ccc2c(cnn2-c2cccc(C(=O)N[C@H]3CC[S+]([O-])C3)c2)c1)c1ccc2c(c1)OCOC2 (single isomer, unassigned) [Example 16] | – | 8.37 | 9.22
7 | C[C@H](NC(=O)C(C)(F)F)[C@H](Oc1ccc2c(cnn2-c2cccc(C(=O)NCc3ccccc3)c2)c1)c1ccc2c(c1)OCOC2 [Example 17, 3-[5-({(1R,2S)-1-(4H-1,3-benzodioxin-7-yl)-2-[(2,2-difluoropropanoyl)amino]propyl}oxy)-1H-indazol-1-yl]-N-benzylbenzamide] | 9.12 | 9.00 | –
8 | C[C@H](NC(=O)C(C)(F)F)[C@H](Oc1ccc2c(cnn2-c2cccc(C(=O)N[C@@H]3CCC[C@@H]3O)c2)c1)c1ccc2c(c1)OCOC2 [Example 14, 3-[5-({(1R,2S)-1-(4H-1,3-benzodioxin-7-yl)-2-[(2,2-difluoropropanoyl)amino]propyl}oxy)-1H-indazol-1-yl]-N-[(1R,2S)-2-hydroxycyclopentyl]benzamide] | 9.84 | 8.76 | –
9 | C[C@H](NC(=O)C(C)(F)F)[C@H](Oc1ccc2c(cnn2-c2cccc(C(=O)N[C@@H]3CCC[C@@H]3O)c2)c1)c1ccc2c(c1)OCCO2 [Example 10, 3-(5-{[(1R,2S)-2-[(2,2-difluoropropanoyl)amino]-1-(2,3-dihydro-1,4-benzodioxin-6-yl)propyl]oxy}-1H-indazol-1-yl)-N-[(1R,2S)-2-hydroxycyclopentyl]benzamide] | 9.95 | 9.19 | –
10 | C[C@H](NC(=O)C(C)(F)F)[C@H](Oc1ccc2c(cnn2-c2cccc(C(=O)N[C@H]3CCC[C@@H]3O)c2)c1)c1ccc2c(c1)OCOC2 [Example 18, 3-[5-({(1R,2S)-1-(4H-1,3-benzodioxin-7-yl)-2-[(2,2-difluoropropanoyl)amino]propyl}oxy)-1H-indazol-1-yl]-N-[(1S,2S)-2-hydroxycyclopentyl]benzamide] | 9.26 | 8.46 | –
11 | CC[C@@H](O)CNC(=O)c1cccc(-n2ncc3cc(O[C@H](c4ccc5c(c4)OCOC5)[C@H](C)NC(=O)C(C)(F)F)ccc32)c1 [Example 11, 3-[5-({(1R,2S)-1-(4H-1,3-benzodioxin-7-yl)-2-[(2,2-difluoropropanoyl)amino]propyl}oxy)-1H-indazol-1-yl]-N-[(2R)-2-hydroxybutyl]benzamide] | 9.29 | 8.67 | –
